Assay results published in patent US8569361B1, “Aliphatic amino acid biosynthesis inhibitors and a method of synthesizing the same” (priority 2012, dated 2013).
Values after ≈ are worked out from the molar mass of the structure shown.

What was measured:
ILV5 = test: Semi-quantitative RT-PCR expression analysis of ilv5; assay type: cell-based, Saccharomyces cerevisiae BY4741; conditions: sub-lethal dose, 4 hours treatment; actin loading control
Experimental: (§1) A semi quantitative RT-PCR analysis was used to investigate any possible effect of new antifungal compounds on the expression level of candidate gene targets.
(§2) The RNA samples were prepared by using a commercial kit i.e. RNA easy mini kit, QIAGEN, Germany. A beads cell disrupter i.e. Micro Smash™, Tomy, Japan was used during the cell lysis process. All RNA preparation steps were performed according to the manufacturer's instructions.
(§3) 1 microgram of total RNA was used in cDNA synthesis reaction. A commercial kit i.e. first strand cDNA Synthesis Kit, Fermentas, USA was used for cDNA synthesis. Total cDNA was prepared using random hexamer primer and all steps were according to the manufacturer's instructions. A typical reaction was performed as table 1 below.
(§4) RT-PCR analysis was carried out to examine the effect of new antifungal compounds on the expression level of genes involved in aliphatic amino acids biosynthesis. Three genes, ilv2, ilv3 and ilv5 were chosen for further analysis. RNA samples were isolated from the yeast cells exposed to sub-lethal or sub-inhibitory concentrations of new antifungal compounds and following a cDNA preparation. RT-PCR was performed using the gene specific primers.
(§5) RT-PCR products were visualized by electrophoresis on agarose gel and staining by ethidium bromide.
(§6) An overnight culture of yeast Saccharomyces cerevisiae BY4741 was prepared. […]

ILV2 = test: Semi-quantitative RT-PCR expression analysis of ilv2; assay type: cell-based, Saccharomyces cerevisiae BY4741; conditions: sub-lethal dose, 4 hours treatment; actin loading control
Experimental: as §1, §2, §3, §4, §5, §6

ILV3 = test: Semi-quantitative RT-PCR expression analysis of ilv3; assay type: cell-based, Saccharomyces cerevisiae BY4741; conditions: sub-lethal dose, 4 hours treatment; actin loading control
Experimental: as §1, §2, §3, §4, §5, §6

yeast cells [1] = test: Reversal assay: amino acids/metabolites reversing the antifungal activity at MIC level; assay type: cell-based, Saccharomyces cerevisiae
Experimental: Performing reversal assay: The reversal assay according to the embodiments herein is performed by the following steps in general: First the yeast strain is grown in presence of minimum inhibitory concentrations of the compounds to be tested. Then different concentrations of amino acids or metabolite intermediates are added to reverse the inhibitory effect of the test compounds. Then again the growth is checked and the minimum concentration of the metabolite or amino acids required for reversing the inhibitory effect is determined.
An experiment was designed for finding the metabolite that reverses the antifungal activity of the test compound.
With respect to FIG. 3, a cell suspension containing 1.5×10^5 yeast/ml was prepared in RPMI medium (1.2×) enriched by 2% glucose. […] 80 μl of this suspension was added to each well of a 96 well micro plate in the second row. Subsequently, two fold dilutions of reversing metabolite were prepared in the first row of the same microplate and 20 μl of each dilution was added to the related well of the second row. The plate was incubated at 30° C. overnight. Following an overnight incubation, the plate was checked for any visible growth of the strain. In case of any growth, the reversing metabolite was considered for further analysis.
In this test, all the amino acids, nucleic acids and intermediate metabolites of citric acid cycle were tested separately.
For all the compounds the mixture of mediators was evaluated. After observing that the compound was reversed, each of the mediating materials was tested separately. Reversal assay test has been done for all of the amino acids like glycine, alanine, leucine, isoleucine and valine.
Row G indicates a compound B in the absence of amino acids and cells. Row H is control cell.

yeast cells [2] = test: Minimum Inhibitory Concentration (MIC) by micro serial dilution in 96 well plate; assay type: cell-based; conditions: Saccharomyces cerevisiae, 48 hours incubation
Experimental: Two fold serial dilutions of the compounds to be tested according to the embodiments herein were prepared in 96 well plates. 40 μl of appropriate test compound dilution was added to 160 μl of culture medium and the plate was incubated at 30° C. The culture medium is Yeast Peptone Dextrose agar (YPD) containing 10^3 yeast cells. The growth of yeast cells was monitored for 24 hr and 48 hr. Fluorouracil was used as a positive control and Dimethyl sulfoxide (DMSO-control solvent) was used as negative control. The minimum concentration of the test compound A which inhibits the fungal growth was defined as MIC. MIC level is defined as the minimum concentration of the compound which prevents the growth of pathogen. […]
After providing a serial dilution in the second row, 20 μl of the wells of the second row was transformed to the wells of first row and final volume of the wells of first row was changed to 100 μl. Finally, a surrounding part of each plate was covered with parafilm and was incubated under 37 degree of centigrade. the results were read out After 24 hours and 48 hours. […]
As a result of the growth of the fungus the medium is becoming cloudy. […] For defining the MIC, as well as the sample, positive control i.e. an approved antifungal drug like fluorouracil were measured. A solution control and a negative control i.e. only the fungal suspension were measured. […]

Structure (SMILES) | Expression level of ilv5, treated vs untreated cells (ILV5) | Expression level of ilv2, treated vs untreated cells (ILV2) | Expression level of ilv3, treated vs untreated cells (ILV3) | Minimum Reversal Concentration (MRC), isoleucine (yeast cells [1]; isoleucine added 0-200 μg/ml, compound at constant MIC level) | Minimum Reversal Concentration (MRC), leucine (yeast cells [1]; leucine added 0-200 μg/ml, compound at constant MIC level) | Minimum Reversal Concentration (MRC), valine (yeast cells [1]; valine added 0-200 μg/ml, compound at constant MIC level) | MIC (yeast cells [2]) | reversal property of the antifungal activity (yeast cells [1])
CCOC(=O)C#C/C=C/C(=O)OCC [compound B, diethyl-hex-2-en-4-yne-dioate] | higher than that in the untreated cells | unchanged | unchanged | 25 µg/mL | 12.5 µg/mL | 12.5 µg/mL | 1.5 µg/mL (≈ 7.65 µM) | 
C#CC(=O)Oc1ccc2ccc(=O)oc2c1 [compound A, 2-oxo-2H-chromen-7-yl propiolate] |  |  |  |  |  |  |  | lacks the reversal property
